Data: PubChem BioAssay (NCI)
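Exposure lasted 48 hours, with cells grown in 96-well plates and compounds tested at five concentrations. Definition used: TGI = concentration required for complete inhibition of growth.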

Columns and labels:
Test in all cases: DTP human tumour cell line panel, 48 h
ACHN renal = tested on: ACHN renal
CAKI-1 renal = tested on: CAKI-1 renal
HCT-116 colon = tested on: HCT-116 colon
HL-60(TB) leukemia = tested on: HL-60(TB) leukemia
HOP-62 NSCLC = tested on: HOP-62 NSCLC
HS 578T breast = tested on: HS 578T breast
MDA-MB-231 breast = tested on: MDA-MB-231 breast
MDA-MB-435 = tested on: MDA-MB-435
NCI-H23 lung = tested on: NCI-H23 lung
NCI-H522 lung = tested on: NCI-H522 lung
NCI/ADR-RES ovarian = tested on: NCI/ADR-RES ovarian
RPMI-8226 leukemia = tested on: RPMI-8226 leukemia
RXF 393 renal = tested on: RXF 393 renal
SN12C renal = tested on: SN12C renal
T-47D breast = tested on: T-47D breast
UACC-62 melanoma = tested on: UACC-62 melanoma
MOLT-4 leukemia = tested on: MOLT-4 leukemia
OVCAR-4 ovarian = tested on: OVCAR-4 ovarian
U251 CNS = tested on: U251 CNS
MCF7 breast = tested on: MCF7 breast

Cc1cccc(/C=N/NC(=S)N2CCCCCC2)n1 was tested, and the TGI (ACHN renal) was 1.71 µM, the TGI (CAKI-1 renal) was 8.86 µM and the TGI (HCT-116 colon) was 0.11 µM. For the same compound, the TGI (HL-60(TB) leukemia) was 0.241 µM, the TGI (HOP-62 NSCLC) was 1.01 µM and the TGI (HS 578T breast) was greater than 100 µM. It also gave a TGI (MDA-MB-231 breast) of 15.2 µM, a TGI (MDA-MB-435) of 38.9 µM and a TGI (NCI-H23 lung) greater than 37.1 µM. The TGI (NCI-H522 lung) was 0.788 µM, the TGI (NCI/ADR-RES ovarian) was 0.202 µM and the TGI (RPMI-8226 leukemia) was 0.374 µM. The TGI (RXF 393 renal) was 38.9 µM, the TGI (SN12C renal) was 0.805 µM and the TGI (T-47D breast) was greater than 100 µM. It also gave a TGI (UACC-62 melanoma) of 1.08 µM.
For N#CC(c1nc2ccccc2s1)c1nc(Cl)ncc1Br (centres undefined), the TGI (ACHN renal) was greater than 100 µM, the TGI (CAKI-1 renal) was greater than 100 µM and the TGI (HCT-116 colon) was 69.8 µM. It also gave a TGI (HOP-62 NSCLC) greater than 100 µM, a TGI (MDA-MB-231 breast) greater than 100 µM and a TGI (MDA-MB-435) greater than 100 µM. It also gave a TGI (MOLT-4 leukemia) greater than 100 µM, a TGI (NCI-H23 lung) of 73.9 µM and a TGI (NCI-H522 lung) of 62.1 µM. It also gave a TGI (NCI/ADR-RES ovarian) greater than 100 µM, a TGI (OVCAR-4 ovarian) greater than 100 µM and a TGI (RPMI-8226 leukemia) of 81.1 µM. For the same compound, the TGI (RXF 393 renal) was 90.3 µM, the TGI (SN12C renal) was greater than 100 µM and the TGI (T-47D breast) was greater than 100 µM. The TGI (U251 CNS) was greater than 100 µM.
Compound O=C(Nc1ccccc1)c1cc(S(=O)(=O)Nc2n[nH]c(=O)[nH]2)c(SSc2cc(Cl)c(C(=O)Nc3ccccc3)cc2S(=O)(=O)Nc2n[nH]c(=O)[nH]2)cc1Cl has a TGI (ACHN renal) greater than 100 µM, a TGI (CAKI-1 renal) greater than 100 µM and a TGI (HCT-116 colon) greater than 100 µM. For the same compound, the TGI (HL-60(TB) leukemia) was greater than 100 µM, the TGI (HOP-62 NSCLC) was greater than 100 µM and the TGI (HS 578T breast) was greater than 100 µM. The TGI (MCF7 breast) was greater than 100 µM, the TGI (MDA-MB-231 breast) was greater than 100 µM and the TGI (MDA-MB-435) was greater than 100 µM. It also gave a TGI (MOLT-4 leukemia) greater than 100 µM, a TGI (NCI-H23 lung) greater than 100 µM and a TGI (NCI-H522 lung) greater than 100 µM. It also gave a TGI (NCI/ADR-RES ovarian) greater than 100 µM, a TGI (OVCAR-4 ovarian) greater than 100 µM and a TGI (RPMI-8226 leukemia) greater than 100 µM. It also gave a TGI (SN12C renal) greater than 100 µM and a TGI (U251 CNS) greater than 100 µM.
For O=c1c(/C=C/c2c(O)ccc3ccccc23)nnc2sc(-c3cccc([N+](=O)[O-])c3)nn12, the TGI (ACHN renal) was greater than 100 µM, the TGI (CAKI-1 renal) was greater than 100 µM and the TGI (HCT-116 colon) was 32.2 µM. For the same compound, the TGI (HL-60(TB) leukemia) was 13.5 µM, the TGI (HOP-62 NSCLC) was greater than 100 µM and the TGI (HS 578T breast) was 56.1 µM. The TGI (MDA-MB-231 breast) was 58 µM, the TGI (MDA-MB-435) was greater than 100 µM and the TGI (MOLT-4 leukemia) was 28.4 µM. The TGI (NCI-H23 lung) was greater than 100 µM, the TGI (NCI-H522 lung) was 28.1 µM and the TGI (NCI/ADR-RES ovarian) was 67.8 µM. For the same compound, the TGI (OVCAR-4 ovarian) was 51.6 µM, the TGI (RPMI-8226 leukemia) was greater than 100 µM and the TGI (RXF 393 renal) was greater than 100 µM. It also gave a TGI (SN12C renal) greater than 100 µM, a TGI (U251 CNS) greater than 100 µM and a TGI (UACC-62 melanoma) of 43.9 µM.
With CC(C)(C)OC(=O)NC1CCCC1C(O)(C1=CCCC1)C1=CCCC1 (centres undefined) the TGI (ACHN renal) was greater than 100 µM, the TGI (HCT-116 colon) was greater than 100 µM and the TGI (HL-60(TB) leukemia) was greater than 100 µM. For the same compound, the TGI (HOP-62 NSCLC) was greater than 100 µM, the TGI (HS 578T breast) was greater than 100 µM and the TGI (MDA-MB-231 breast) was greater than 100 µM. The TGI (MDA-MB-435) was greater than 100 µM, the TGI (MOLT-4 leukemia) was greater than 100 µM and the TGI (NCI-H23 lung) was greater than 100 µM. For the same compound, the TGI (NCI/ADR-RES ovarian) was greater than 100 µM, the TGI (OVCAR-4 ovarian) was greater than 100 µM and the TGI (RPMI-8226 leukemia) was greater than 100 µM. It also gave a TGI (RXF 393 renal) greater than 100 µM, a TGI (SN12C renal) greater than 100 µM and a TGI (T-47D breast) greater than 100 µM. It also gave a TGI (U251 CNS) greater than 100 µM and a TGI (UACC-62 melanoma) greater than 100 µM.
For CSc1nc2c(c(=O)n1C)N=C(c1ccc(Cl)cc1)CC(c1ccccc1)N2 (centres undefined), the TGI (ACHN renal) was 44.6 µM, the TGI (CAKI-1 renal) was 46.4 µM and the TGI (HCT-116 colon) was greater than 100 µM. For the same compound, the TGI (HL-60(TB) leukemia) was 62.4 µM, the TGI (HOP-62 NSCLC) was 71.4 µM and the TGI (MCF7 breast) was 27.2 µM. For the same compound, the TGI (MDA-MB-231 breast) was 27.3 µM, the TGI (MDA-MB-435) was greater than 100 µM and the TGI (MOLT-4 leukemia) was 53.9 µM. The TGI (NCI-H23 lung) was 62 µM, the TGI (NCI-H522 lung) was 47.9 µM and the TGI (NCI/ADR-RES ovarian) was 74.1 µM. The TGI (OVCAR-4 ovarian) was 23.7 µM, the TGI (RPMI-8226 leukemia) was 47.8 µM and the TGI (RXF 393 renal) was 75.4 µM. For the same compound, the TGI (SN12C renal) was 39.4 µM, the TGI (U251 CNS) was greater than 100 µM and the TGI (UACC-62 melanoma) was 34.7 µM.
Compound Cc1c(NC(=S)N/N=C\C(=N/NC(=S)Nc2c(C)n(C)n(-c3ccccc3)c2=O)c2ccccc2)c(=O)n(-c2ccccc2)n1C has a TGI (ACHN renal) greater than 100 µM, a TGI (CAKI-1 renal) greater than 100 µM and a TGI (HCT-116 colon) greater than 100 µM. The TGI (HOP-62 NSCLC) was greater than 100 µM, the TGI (HS 578T breast) was greater than 100 µM and the TGI (MDA-MB-231 breast) was greater than 100 µM. The TGI (MDA-MB-435) was greater than 100 µM, the TGI (MOLT-4 leukemia) was greater than 100 µM and the TGI (NCI-H23 lung) was greater than 100 µM. For the same compound, the TGI (NCI/ADR-RES ovarian) was greater than 100 µM, the TGI (OVCAR-4 ovarian) was greater than 100 µM and the TGI (RXF 393 renal) was greater than 100 µM. It also gave a TGI (T-47D breast) greater than 100 µM, a TGI (U251 CNS) greater than 100 µM and a TGI (UACC-62 melanoma) greater than 100 µM.
CC(=O)c1cc2c(s1)C(=O)c1scc(C(C)=O)c1C2=O gave a TGI (ACHN renal) of 0.828 µM, a TGI (CAKI-1 renal) of 2.34 µM and a TGI (HCT-116 colon) of 1.12 µM. For the same compound, the TGI (HOP-62 NSCLC) was 1.97 µM, the TGI (MDA-MB-231 breast) was 0.809 µM and the TGI (MDA-MB-435) was 0.496 µM. It also gave a TGI (NCI-H23 lung) of 1.72 µM, a TGI (NCI-H522 lung) of 1.28 µM and a TGI (NCI/ADR-RES ovarian) of 0.737 µM. It also gave a TGI (OVCAR-4 ovarian) of 0.454 µM, a TGI (RPMI-8226 leukemia) of 1.08 µM and a TGI (RXF 393 renal) of 1.54 µM. It also gave a TGI (SN12C renal) of 0.426 µM, a TGI (T-47D breast) of 0.838 µM and a TGI (U251 CNS) of 0.628 µM. The TGI (UACC-62 melanoma) was 0.692 µM.
For CC(C)=CC(C)C(C(O)CCC1(c2ccoc2)OCCO1)S(=O)(=O)c1ccccc1 (centres undefined), the TGI (ACHN renal) was greater than 100 µM, the TGI (CAKI-1 renal) was greater than 100 µM and the TGI (HCT-116 colon) was greater than 100 µM. For the same compound, the TGI (HOP-62 NSCLC) was greater than 100 µM, the TGI (MCF7 breast) was greater than 100 µM and the TGI (MDA-MB-231 breast) was greater than 100 µM. The TGI (MDA-MB-435) was greater than 100 µM, the TGI (NCI-H23 lung) was greater than 100 µM and the TGI (NCI-H522 lung) was greater than 100 µM. It also gave a TGI (NCI/ADR-RES ovarian) greater than 100 µM, a TGI (OVCAR-4 ovarian) greater than 100 µM and a TGI (RPMI-8226 leukemia) greater than 100 µM. It also gave a TGI (RXF 393 renal) greater than 100 µM, a TGI (SN12C renal) greater than 100 µM and a TGI (T-47D breast) greater than 100 µM. The TGI (U251 CNS) was greater than 100 µM.
With Cn1nc(-c2ccccc2)c(N=[N+]=[N-])cc1=O the TGI (ACHN renal) was greater than 100 µM, the TGI (CAKI-1 renal) was greater than 100 µM and the TGI (HCT-116 colon) was greater than 100 µM. It also gave a TGI (HL-60(TB) leukemia) greater than 100 µM, a TGI (HOP-62 NSCLC) greater than 100 µM and a TGI (MOLT-4 leukemia) greater than 100 µM. It also gave a TGI (NCI-H23 lung) greater than 100 µM, a TGI (NCI-H522 lung) greater than 100 µM and a TGI (OVCAR-4 ovarian) greater than 100 µM. The TGI (RPMI-8226 leukemia) was greater than 100 µM, the TGI (RXF 393 renal) was greater than 100 µM and the TGI (SN12C renal) was greater than 100 µM. It also gave a TGI (U251 CNS) greater than 100 µM and a TGI (UACC-62 melanoma) greater than 100 µM.
Work on C=C(C)[C@@H]1CC[C@]2(CO)CC[C@]3(C)[C@H](CC[C@@H]4[C@@]5(C)CC[C@H](O)C(C)(C)[C@@H]5CC[C@]43C)[C@@H]12 yielded a TGI (ACHN renal) of 25.6 µM, a TGI (CAKI-1 renal) of 29 µM and a TGI (HCT-116 colon) greater than 100 µM. The TGI (HL-60(TB) leukemia) was greater than 100 µM, the TGI (HOP-62 NSCLC) was 42.1 µM and the TGI (MCF7 breast) was 45.5 µM. For the same compound, the TGI (MDA-MB-231 breast) was greater than 100 µM, the TGI (MDA-MB-435) was 57.1 µM and the TGI (MOLT-4 leukemia) was greater than 100 µM. It also gave a TGI (NCI-H23 lung) greater than 100 µM, a TGI (NCI-H522 lung) of 64.9 µM and a TGI (NCI/ADR-RES ovarian) greater than 100 µM. The TGI (RXF 393 renal) was 25.9 µM, the TGI (SN12C renal) was 69.6 µM and the TGI (T-47D breast) was greater than 100 µM. It also gave a TGI (U251 CNS) of 24.1 µM.
